Blank lines part the entries; values can stand above or below the molecule they belong to.
Key:
[1] = target: T1, cellodextrin phosphorylase (CDP) (Acetivibrio thermocellus, UniProt Q93HT8); assay: STD NMR titration (STD-AF of H4beta, […] s saturation); type: binding; details: [D11]Tris 25 mM pH 7.4, NaCl 100 mM; no phosphate; apparent
T1 construct: gene cdp-ym4; 1009 amino acids, 114 kDa per monomer, homodimer
T1 sequence (Q93HT8 1-984): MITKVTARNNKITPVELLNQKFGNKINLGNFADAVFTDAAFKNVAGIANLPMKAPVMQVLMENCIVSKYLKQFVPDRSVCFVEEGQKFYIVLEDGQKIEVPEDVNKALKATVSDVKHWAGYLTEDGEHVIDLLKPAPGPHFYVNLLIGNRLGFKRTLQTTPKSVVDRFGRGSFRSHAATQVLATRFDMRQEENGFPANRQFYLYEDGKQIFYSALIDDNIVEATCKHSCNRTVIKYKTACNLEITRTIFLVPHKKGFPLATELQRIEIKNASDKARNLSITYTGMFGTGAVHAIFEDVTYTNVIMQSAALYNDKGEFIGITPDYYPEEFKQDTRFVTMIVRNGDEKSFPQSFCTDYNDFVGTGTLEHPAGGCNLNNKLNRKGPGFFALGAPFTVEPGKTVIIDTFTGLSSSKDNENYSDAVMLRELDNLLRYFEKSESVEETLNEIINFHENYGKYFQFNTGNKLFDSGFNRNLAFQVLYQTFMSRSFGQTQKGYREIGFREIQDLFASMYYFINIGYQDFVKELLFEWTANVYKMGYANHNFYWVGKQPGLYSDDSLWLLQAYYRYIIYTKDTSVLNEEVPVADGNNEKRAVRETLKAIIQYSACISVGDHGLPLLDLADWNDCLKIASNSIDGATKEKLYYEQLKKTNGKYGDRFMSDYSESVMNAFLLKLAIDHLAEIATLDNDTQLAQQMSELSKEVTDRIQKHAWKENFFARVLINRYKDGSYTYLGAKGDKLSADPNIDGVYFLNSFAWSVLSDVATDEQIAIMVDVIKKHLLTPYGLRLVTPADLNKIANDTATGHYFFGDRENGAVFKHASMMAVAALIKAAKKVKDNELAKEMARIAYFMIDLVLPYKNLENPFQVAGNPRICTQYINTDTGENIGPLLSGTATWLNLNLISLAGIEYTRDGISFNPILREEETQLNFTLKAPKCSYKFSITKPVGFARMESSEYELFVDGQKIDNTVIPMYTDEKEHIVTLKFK

[2] = target: T1, cellodextrin phosphorylase (CDP); assay: STD NMR, binding epitope mapping; details: [D11]Tris 25 mM pH 7.4, NaCl 100 mM, 278 K; 3 mM ligand, 15 uM binding sites; acceptor site
[3] = target: T1, cellodextrin phosphorylase (CDP); assay: STD NMR, binding epitope mapping; tr-NOESY; details: [D11]Tris 25 mM pH 7.4, NaCl 100 mM, 278 K (STD); tr-NOESY 290 K; 3 mM ligand, 15 uM binding sites (STD); acceptor site

Kd [1]: 2200 µM
SMILES: OC[C@H]1O[C@@H](O[C@H]2[C@H](O)[C@@H](O)C(O)O[C@@H]2CO)[C@H](O)[C@@H](O)[C@@H]1O (stereo partly drawn) [D-cellobiose]

SMILES: OC[C@H]1O[C@@H](O[C@H]2[C@H](O)[C@@H](O)[C@H](O[C@H]3[C@H](O)[C@@H](O)C(O)O[C@@H]3CO)O[C@@H]2CO)[C@H](O)[C@@H](O)[C@@H]1O (stereo partly drawn) [D-cellotriose]
STD NMR, binding epitope mapping [2]: D‐cellotriose showed contacts for both the reducing α‐ and β‐glucose rings

SMILES: OC[C@H]1O[C@@H](O[C@H]2[C@H](O)[C@@H](CO)OC(O)[C@@H]2O)[C@H](O)[C@@H](O)[C@@H]1O (stereo partly drawn) [D-laminaribiose]
STD NMR, binding epitope mapping; tr-NOESY [3]: H2 of the non‐reducing glucose ring received the largest saturation transfer
